Results from US20260102401A1, “Combination Therapies” (MIRATI THERAPEUTICS, INC., priority 2022, published 2026).

System: H2122 cells
Experiment: H2122 cell-line derived xenograft model, tumor volumes
Format: in vivo, nude/nude mice
Settings: for tumor growth inhibition: Day 17, single agent, H2122 xenograft, 100 mg/kg Compound 478 or 50 mg/kg olaparib p.o. daily; for Average Tumor Volumes: H2122 tumor bearing mice, 100 mg/kg Compound 478 and/or 50 mg/kg olaparib p.o. daily
Method: Immunocompromised nude/nude mice were inoculated in the right hind flank with cells or patient derived tumor samples harboring a KRas G12C mutation. When tumor volumes reach ˜300 mm^3 in size, the mice were divided into four groups of 5 mice each. The first group was administered vehicle only. […] The fourth group was orally administered the single agent dose of the KRas G12C inhibitor in combination with the single agent dose of the PARP inhibitor at the matched schedule. The treatment period was 17 days. Tumor volumes were measured using a caliper every two-three days and tumor volumes are calculated by the formula: […].
For example, twenty nude/nude mice were inoculated in the right hind limb with 5×10^6 H2122 cells. When tumor volume reached ˜300 mm^3 (Study Day 1), 5 mice in each of the […] groups were administered p.o. daily for 32 days: vehicle only (10% Captisol in 50 mM citrate buffer pH5.0), 100 mg/kg of KRas G12C inhibitor Compound 478 (10% Captisol in 50 mM citrate buffer, pH 5.0), 50 mg/kg of the PARP inhibitor olaparib (10% Captisol in 50 mM citrate buffer, pH 5.0), or 100 mg/kg of KRas G12C inhibitor Compound 478 and 50 mg/kg of olaparib. Dosing stopped on day 17 for all groups due to large tumor growth in the vehicle and Olaparib only groups.

| Structure (SMILES) | tumor growth inhibition | Average Tumor Volumes (Study Day 3) | Average Tumor Volumes (Study Day 6) | Average Tumor Volumes (Study Day 10) | Average Tumor Volumes (Study Day 13) | Average Tumor Volumes (Study Day 17) | Average Tumor Volumes (Study Day −1 (before dosing)) |
| --- | --- | --- | --- | --- | --- | --- | --- |
| C=C(F)C(=O)N1CCN(c2nc(OC[C@@H]3CCCN3C)nc3c2CCN(c2cccc4cccc(Cl)c24)C3)C[C@@H]1CC#N [Compound 478, adagrasib] | 89% | 290.578 mm^3 | 301.744 mm^3 | 326.222 mm^3 | 345.38 mm^3 | 360.308 mm^3 | 284.794 mm^3 |
| O=C(c1cc(Cc2n[nH]c(=O)c3ccccc23)ccc1F)N1CCN(C(=O)C2CC2)CC1 [Olaparib, 4-[[3-[4-(cyclopropanecarbonyl)piperazine-1-carbonyl]-4-fluorophenyl]methyl]-2H-phthalazin-1-one] | 0% | 451.342 mm^3 | 558.15 mm^3 | 776.514 mm^3 | 848.664 mm^3 | 1058.96 mm^3 | 292.194 mm^3 |
